Columns and labels:
[1] = molecular target: T1, human adenosine A2A receptor (Homo sapiens, UniProt P29274); experiment: Inhibition binding assay, human adenosine A2A receptor membranes, [3H]ZM241385; conditions: 1 nM [3H]ZM241385, HEK293-hA2A membranes, 25° C., 1 h; IC50 converted to Ki with Cheng-Prusoff; read-out: A2A pKi (converted)
T1 construct: expressed in transfected cells; host or cells: HEK293 cells infected with BacMam
Outline: (§1)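 Membranes from BacMam-infected HEK293 cells (0.2 μg A2A, 1.4 μg A1) incubated 1 h at 25° C with test compound and 1 nM [3H]ZM241385 (A2A; 50 mM Tris-HCl pH 7.4) or [3H]DPCPX (A1; plus 100 mM NaCl, 10 mM MgCl2). Nonspecific: 1 μM CGS15943 or DPCPX. Filtration, scintillation; IC50 converted to Ki via Cheng-Prusoff.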

[2] = molecular target: T2, human adenosine A1 receptor (Homo sapiens, UniProt P30542); experiment: Inhibition binding assay, human adenosine A1 receptor membranes, [3H]DPCPX; conditions: 1 nM [3H]DPCPX, 25° C., 1 h; IC50 converted to Ki with Cheng-Prusoff; read-out: A1 pKi (converted)
T2 construct: expressed in transfected cells; host or cells: HEK293 cells infected with BacMam (the same paragraph also labels the preparation CHO-hA1)
T2 sequence (P30542 1-326): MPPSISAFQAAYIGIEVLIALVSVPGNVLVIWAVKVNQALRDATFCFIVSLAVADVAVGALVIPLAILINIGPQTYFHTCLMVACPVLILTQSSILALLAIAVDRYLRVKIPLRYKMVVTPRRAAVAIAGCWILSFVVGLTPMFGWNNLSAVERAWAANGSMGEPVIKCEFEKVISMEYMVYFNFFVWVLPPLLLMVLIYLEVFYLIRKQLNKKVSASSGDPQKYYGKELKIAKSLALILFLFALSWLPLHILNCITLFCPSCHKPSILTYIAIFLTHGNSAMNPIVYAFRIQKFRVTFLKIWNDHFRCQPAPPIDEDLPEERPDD
Outline: as §1

T1 sequence (P29274 whole entry): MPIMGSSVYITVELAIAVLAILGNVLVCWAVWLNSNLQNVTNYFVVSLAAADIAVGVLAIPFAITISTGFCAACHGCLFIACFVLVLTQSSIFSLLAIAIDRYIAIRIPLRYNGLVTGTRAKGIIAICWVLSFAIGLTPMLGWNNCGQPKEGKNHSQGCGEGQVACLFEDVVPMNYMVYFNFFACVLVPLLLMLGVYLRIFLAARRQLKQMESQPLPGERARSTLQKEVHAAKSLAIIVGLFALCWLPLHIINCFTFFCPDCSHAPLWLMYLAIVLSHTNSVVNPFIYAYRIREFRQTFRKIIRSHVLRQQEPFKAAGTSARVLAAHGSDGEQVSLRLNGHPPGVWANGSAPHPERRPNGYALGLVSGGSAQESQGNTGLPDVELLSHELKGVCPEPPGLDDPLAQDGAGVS

SMILES	Ki [1] [nM]	Ki [2] [nM]
Cc1cc(-c2c(-c3ccccc3)nc(N)n3c(=O)n(C4Cc5ccc(N)cc5C4)nc23)cc(C)n1 (stereo not shown) [Example 1-104, 5-amino-2-(5-aminoindan-2-yl)-8-(2,6-dimethyl-4-pyridyl)-7-phenyl-[1,2,4]triazolo[4,3-c]pyrimidin-3-one]	2	100
Cc1cc(-c2c(-c3ccccc3)nc(N)n3c(=O)[nH]nc23)cc(C)n1 [Example 2-1, 5-amino-8-(2,6-dimethyl-4-pyridyl)-7-phenyl-2H-[1,2,4]triazolo[4,3-c]pyrimidin-3-one]	5.01	79.4
Cc1cc(-c2c(-c3ccccc3)nc(N)n3c(=O)n(C)nc23)cc(C)n1 [Example 2-2, 5-amino-8-(2,6-dimethyl-4-pyridyl)-2-methyl-7-phenyl-[1,2,4]triazolo[4,3-c]pyrimidin-3-one]	5.01	200
Cc1cc(-c2c(-c3ccccc3)nc(N)n3c(=O)n(CCCF)nc23)cc(C)n1 [Example 2-8, 5-amino-8-(2,6-dimethyl-4-pyridyl)-2-(3-fluoropropyl)-7-phenyl-[1,2,4]triazolo[4,3-c]pyrimidin-3-one]	1.58	316
Cc1cc(-c2c(-c3ccccc3)nc(N)n3c(=O)n(CCOS(C)(=O)=O)nc23)cc(C)n1 [Example 2-9, 2-[5-amino-8-(2,6-dimethyl-4-pyridyl)-3-oxo-7-phenyl-[1,2,4]triazolo[4,3-c]pyrimidin-2-yl]ethyl methanesulfonate]	20	631
Cc1cc(-c2c(-c3ccccc3)nc(N)n3c(=O)n(CCC#N)nc23)cc(C)n1 [Example 2-11, 3-[5-amino-8-(2,6-dimethyl-4-pyridyl)-3-oxo-7-phenyl-[1,2,4]triazolo[4,3-c]pyrimidin-2-yl]propanenitrile]	15.8	794
CCOC(=O)NCCn1nc2c(-c3cc(C)nc(C)c3)c(-c3ccccc3)nc(N)n2c1=O [Example 2-12, ethyl N-[2-[5-amino-8-(2,6-dimethyl-4-pyridyl)-3-oxo-7-phenyl-[1,2,4]triazolo[4,3-c]pyrimidin-2-yl]ethyl]carbamate]	10	501
Cc1cc(-c2c(-c3ccccc3)nc(N)n3c(=O)n(CCNC(=O)OC(C)(C)C)nc23)cc(C)n1 [Example 2-14, tert-butyl N-[2-[5-amino-8-(2,6-dimethyl-4-pyridyl)-3-oxo-7-phenyl-[1,2,4]triazolo[4,3-c]pyrimidin-2-yl]ethyl]carbamate]	100	794
Cc1cc(-c2c(-c3ccccc3)nc(N)n3c(=O)n(CCC(F)F)nc23)cc(C)n1 [Example 2-17, 5-amino-2-(3,3-difluoropropyl)-8-(2,6-dimethyl-4-pyridyl)-7-phenyl-[1,2,4]triazolo[4,3-c]pyrimidin-3-one]	2	1000
Cc1cc(-c2c(-c3ccccc3)nc(N)n3c(=O)n(CCN(C)C4CC4)nc23)cc(C)n1 [Example 2-19, 5-amino-2-[2-[cyclopropyl(methyl)amino]ethyl]-8-(2,6-dimethyl-4-pyridyl)-7-phenyl-[1,2,4]triazolo[4,3-c]pyrimidin-3-one]	3.98	398
Cc1cc(-c2c(-c3ccccc3)nc(N)n3c(=O)n(CC(C)C)nc23)cc(C)n1 [Example 2-21, 5-amino-8-(2,6-dimethyl-4-pyridyl)-2-isobutyl-7-phenyl-[1,2,4]triazolo[4,3-c]pyrimidin-3-one]	2.51	1000
Cc1cc(-c2c(-c3ccccc3)nc(N)n3c(=O)n(CC(CO)CO)nc23)cc(C)n1 [Example 2-24, 5-amino-8-(2,6-dimethyl-4-pyridyl)-2-[3-hydroxy-2-(hydroxymethyl)propyl]-7-phenyl-[1,2,4]triazolo[4,3-c]pyrimidin-3-one]	10	794
CCC1(C)CC1Cn1nc2c(-c3cc(C)nc(C)c3)c(-c3ccccc3)nc(N)n2c1=O (stereo not shown) [Example 2-27, 5-amino-8-(2,6-dimethyl-4-pyridyl)-2-[(2-ethyl-2-methyl-cyclopropyl)methyl]-7-phenyl-[1,2,4]triazolo[4,3-c]pyrimidin-3-one]	0.631	31.6
Cc1cc(-c2c(-c3ccccc3)nc(N)n3c(=O)n(CC(=O)N(C)C4CC4)nc23)cc(C)n1 [Example 2-28, 2-[5-amino-8-(2,6-dimethyl-4-pyridyl)-3-oxo-7-phenyl-[1,2,4]triazolo[4,3-c]pyrimidin-2-yl]-N-cyclopropyl-N-methyl-acetamide]	1.58	200
COC(=O)C1(Cn2nc3c(-c4cc(C)nc(C)c4)c(-c4ccccc4)nc(N)n3c2=O)CCCC1 [Example 2-29, methyll-[[5-amino-8-(2,6-dimethyl-4-pyridyl)-3-oxo-7-phenyl-[1,2,4]triazolo[4,3-c]pyrimidin-2-yl]methyl]cyclopentanecarboxylate]	0.501	126
[2H]c1c([2H])c([2H])c(-c2nc(N)n3c(=O)n(CCC(F)(F)F)nc3c2-c2cc(C)nc(C)c2)c([2H])c1[2H] [Example 2-32, 5-amino-8-(2,6-dimethyl-4-pyridyl)-7-(2,3,4,5,6-pentadeuteriophenyl)-2-(3,3,3-trifluoropropyl)-[1,2,4]triazolo[4,3-c]pyrimidin-3-one]	0.501	398

Continued, values first:

Ki [1] [nM]	Ki [2] [nM]	SMILES
20	631	CCn1nc2c(-c3cc(C)nc(C)c3)c(-c3ccccc3)nc(N)n2c1=O [Example 2-3, 5-amino-8-(2,6-dimethyl-4-pyridyl)-2-ethyl-7-phenyl-[1,2,4]triazolo[4,3-c]pyrimidin-3-one]
0.794	39.8	Cc1cc(-c2c(-c3ccccc3)nc(N)n3c(=O)n(CCC(C)C)nc23)cc(C)n1 [Example 2-5, 5-amino-8-(2,6-dimethyl-4-pyridyl)-2-isopentyl-7-phenyl-[1,2,4]triazolo[4,3-c]pyrimidin-3-one]
100	1000	Cc1cc(-c2c(-c3ccccc3)nc(N)n3c(=O)n(CCO)nc23)cc(C)n1 [Example 2-7, 5-amino-8-(2,6-dimethyl-4-pyridyl)-2-(2-hydroxyethyl)-7-phenyl-[1,2,4]triazolo[4,3-c]pyrimidin-3-one]
5.01	501	COC(=O)CCn1nc2c(-c3cc(C)nc(C)c3)c(-c3ccccc3)nc(N)n2c1=O [Example 2-15, methyl 3-[5-amino-8-(2,6-dimethyl-4-pyridyl)-3-oxo-7-phenyl-[1,2,4]triazolo[4,3-c]pyrimidin-2-yl]propanoate]
3.98	501	CCCn1nc2c(-c3cc(C)nc(C)c3)c(-c3ccccc3)nc(N)n2c1=O [Example 2-20, 5-amino-8-(2,6-dimethyl-4-pyridyl)-7-phenyl-2-propyl-[1,2,4]triazolo[4,3-c]pyrimidin-3-one]
200	1000	Cc1cc(-c2c(-c3ccccc3)nc(N)n3c(=O)n(CC(N)=O)nc23)cc(C)n1 [Example 2-22, 2-[5-amino-8-(2,6-dimethyl-4-pyridyl)-3-oxo-7-phenyl-[1,2,4]triazolo[4,3-c]pyrimidin-2-yl]acetamide]
12.6	1000	Cc1cc(-c2c(-c3ccccc3)nc(N)n3c(=O)n(CCC(=O)N(C)C)nc23)cc(C)n1 [Example 2-23, 3-[5-amino-8-(2,6-dimethyl-4-pyridyl)-3-oxo-7-phenyl-[1,2,4]triazolo[4,3-c]pyrimidin-2-yl]-N,N-dimethyl-propanamide]

Source: patent US12528815B2, “5-amino-8-(4-pyridyl)-[1,2,4]triazolo[4,3-c]pyrimidin-3-one compounds for use against cancer” (Nxera Pharma UK Limited, priority 2020, dated 2026)
